The source of these data is ChEMBL document CHEMBL1139406, “Anti-HIV-1 activity of phloroglucinol derivative, 6,6'-bieckol, from Ecklonia cava” (Bioorg Med Chem, 2008).

The source made the active and inactive calls. The rule behind the calls is not given here. Where only a bound is given, the exact number is not on record here.

Data set [1] concerns Human immunodeficiency virus 1. Briefly: Antiviral activity against HIV1 3B in human H9 cells assessed as inhibition of p24 antigen production at 5 uM by ELISA. Type of data set: functional, organism-based. (In general: In an ELISA, binding on a coated surface is turned into a signal by an enzyme label.)
Data set [2] deals with Human immunodeficiency virus 1. Briefly: Antiviral activity against HIV1 3B in human H9 cells assessed as inhibition of p41 gag protein production after 4 days by Western blot analysis. Format: functional, organism-based. (In general: In western blotting, separated proteins are transferred to a membrane and probed.)
For data set [3], the system named is Human immunodeficiency virus 1. In words: Antiviral activity against HIV1 3B in human CEM-SS cells assessed as inhibition of viral-induced lytic effect after 7 days by MTT assay. The following applies: Human immunodeficiency virus 1, 3B, 168 h. Type of data set: functional, organism-based. Background: Formazan colour is commonly taken as a measure of viable cells.

Data set [4] relates to Human immunodeficiency virus 1. In words: Antiviral activity against HIV1 3B in human H9 cells assessed as inhibition of p24 antigen production by ELISA. Type of data set: functional, organism-based. The following applies: Human immunodeficiency virus 1, 3B.
A further data set deals with CEM-SS. Briefly: Cytotoxicity against human CEM-SS cells up to 500 by MTT assay. Format: cell-based.
In data set [5] the test system is Human immunodeficiency virus 1. In words: Antiviral activity against HIV13B in human C8166 co-cultivated with H9 cells assessed as inhibition of viral-induced syncytia formation at 25 uM after 72 hrs. Format: functional, 3B. Further details: scale not given: the % may be the effect or the level left.
The subject of data set [6] is Human immunodeficiency virus 1. Briefly: Antiviral activity against HIV1 3B in human C8166 co-cultivated with H9 cells assessed as inhibition of cell-cell fusion after 72 hrs. Format: functional, organism-based.
The test system of data set [7] is Human immunodeficiency virus 1. Briefly: Antiviral activity against HIV1 3B in human H9 cells assessed as inhibition of p55 gag protein production after 4 days by Western blot analysis. Type of data set: functional, organism-based.
Data set [8] has as its target Human immunodeficiency virus type 1 reverse transcriptase (Human immunodeficiency virus 1, UniProt Q72547). In words: Inhibition of HIV1 3B reverse transcriptase activity.
Data set [9] in a line: Cytotoxicity against human CEM-SS cells after 72 hrs by MTT assay. Format: cell-based.
Data set [10] relates to Human immunodeficiency virus 1. Briefly: Antiviral activity against HIV1 3B in human H9 cells assessed as inhibition of p24 gag protein production after 4 days by Western blot analysis. Format: functional, organism-based.
Data set [11] relates to Human immunodeficiency virus 1. Briefly: Antiviral activity against HIV1 3B in human C8166 cells assessed as inhibition of viral-induced syncytia formation at 25 uM after 72 hrs. Format: functional. Further details: scale not given: the % may be the effect or the level left.
For data set [12], the system named is Human immunodeficiency virus 1. In words: Antiviral activity against HIV1 3B in human C8166 cells assessed as inhibition of viral-induced syncytia formation after 72 hrs. Format: functional, organism-based. The following applies: Human immunodeficiency virus 1, 3B, C8166, 72 h.
Data set [13] deals with Protease (Human immunodeficiency virus 1) (UniProt Q9YQ12). In words: (§1) Inhibition of HIV1 3B recombinant protease.
The target of data set [14] is Human immunodeficiency virus type 1 reverse transcriptase (Human immunodeficiency virus 1) (UniProt Q72547). Briefly: Inhibition of HIV1 3B reverse transcriptase activity at 1 uM.
In data set [15] the test system is Human immunodeficiency virus 1. Briefly: Antiviral activity against HIV1 3B in human H9 cells assessed as inhibition of p24 antigen production at 25 uM by ELISA. Format: functional, organism-based.
The subject of data set [16] is Human immunodeficiency virus 1. In words: Antiviral activity against HIV1 3B in human CEM-SS cells assessed as inhibition of viral-induced lytic effect at 25 uM after 7 days by MTT assay. Format: functional. On the set-up: scale not given: the % may be the effect or the level left.
Data set [17] in a line: Therapeutic index, ratio of CC50 for human CEM-SS cells to IC50 for HIV1 induced lytic effect. Type of data set: cell-based. The conditions noted are these: read-out: TI.
Data set [18] has as its system Human immunodeficiency virus 1. Briefly: Antiviral activity against HIV1 3B in human H9 cells assessed as inhibition of p24 antigen production at 10 uM by ELISA. Format: functional. The following applies: Human immunodeficiency virus 1, 3B.
For data set [19], the system named is Human immunodeficiency virus 1. Briefly: Antiviral activity against HIV1 3B in human C8166 co-cultivated with H9 cells assessed as inhibition of cell-virus fusion after 72 hrs. Format: functional, organism-based.
Data set [20] concerns the target Human immunodeficiency virus type 1 reverse transcriptase (Human immunodeficiency virus 1) (UniProt Q72547). In words: Inhibition of HIV1 3B reverse transcriptase activity at 10 uM.
A further data set addresses Protease (Human immunodeficiency virus 1, UniProt Q9YQ12). The data set is described as §1.

Chain of Protease (Q9YQ12 whole entry): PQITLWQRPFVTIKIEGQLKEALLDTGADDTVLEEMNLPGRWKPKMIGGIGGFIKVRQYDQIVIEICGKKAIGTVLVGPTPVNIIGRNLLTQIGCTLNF
Chain of Protease (Human immunodeficiency virus 1) (Q9YQ12 as listed by the source): as the sequence (Q9YQ12 whole entry) above

Take `Cc1cn([C@H]2C[C@H](N=[N+]=[N-])[C@@H](CO)O2)c(=O)[nH]c1=O`: the outcome in data set [1] was Active.
For `Oc1cc(O)cc(Oc2c(O)cc(O)c3c2Oc2c(O)cc(O)c(-c4c(O)cc(O)c5c4Oc4c(O)cc(O)c(Oc6cc(O)cc(O)c6)c4O5)c2O3)c1`, the result in [2], in data set [6], in data set [7], in data set [15] and in data set [19] was Active. Besides, the EC50 in [3] stood at 1.23 µM; in data set [4], 1.26 µM; in data set [8], 1.07 µM; in data set [12] it was 1.72 µM. Further, the Activity result in the data set with CEM-SS was “Non-toxic”; in data set [5] it was 80%; in data set [10] it was “Dose-dependent effect”; in data set [11] it was 88%; in data set [16] it was >96%. The molecule further returned a CC50 at 72 h in data set [9] of 484 µM. Besides, the result in [13] was inactive. Moreover, the inhibition in data set [14] was 50.5%; in data set [20] it was 96.3%. Besides, in [17], the selectivity ratio amounted to 393. The inhibition at 10 µM in data set [18] came to 90%.
On to `Oc1cc(O)cc(Oc2c(O)cc(O)c3c2Oc2c(cc(O)c(-c4c(O)cc5c(c4O)Oc4c(Oc6cc(O)cc(O)c6)c(O)cc(O)c4O5)c2O)O3)c1`, for which, in data set [8], it took 0.51 µM to reach a half-maximal effect (EC50). For the same molecule, the IC50 on Protease is 81.5 µM.

One may read the EC50 as the concentration at which the effect is half-maximal. The CC50 is the concentration that lowers cell viability or growth by half. In general, inhibition refers to the percentage by which the read-out fell short of the control. The IC50 is the concentration needed to halve the response being measured.
